Data reported in US20250129083A1, “IMIDAZOTETRAZINE COMPOUNDS AND TREATMENT OF TMZ-RESISTANT CANCERS” (THE BOARD OF TRUSTEES OF THE UNIVERSITY OF ILLINOIS, priority 2022, published 2025).
Like-named read-outs stand apart in the source and are kept apart here.

Assays:
T98G cells = assay: Cytotoxicity after pretreatment with MGMT inhibitor O6BG; type: cell-based, human; settings: T98G pretreated (3 hours) with O6BG vs non-pretreated
Method: FIG. 3A-E. Investigation of the mechanism of action and efficacy of CPZ in MGMT+ cell lines. (A) Detection of O^6-methyl-2′-deoxyguanosine or O^6-propargyl-2′-deoxyguanosine in GL261 cells after treatment with TMZ or CPZ, respectively. GL261 cells were treated with the indicated concentration of compound for 8 hours before they were harvested and genomic DNA was extracted. DNA (10 μg) was hydrolyzed and submitted to LC-MS/MS for quantitation. Both O^6-Me-dG and O^6-proparyl-dG were below the limit of detection in the DMSO control. Error is SEM, n≥3. Cytotoxicity of TMZ (B) or CPZ (C) in T98G cells pretreated (3 hours) with MGMT inhibitor O6BG. Error is SEM, n≥3. (D) 7 day dose-response curves of TMZ and CPZ in GL261 cells. Error is SEM, n≥3. (E) 7 day dose-response curves of TMZ and CPZ in GL261 MGMT+ cells. Error is SEM, n≥3.
To further explore the ability of CPZ to evade MGMT-mediated resistance, MGMT-expressing T98G cells were pretreated with MGMT inhibitor O6BG followed by treatment with TMZ or CPZ. […] This cell death potentiation by TMZ upon treatment with an MGMT inhibitor was also observed in MGMT-expressing cell lines U118MG and RKO, whereas the efficacy of CPZ was again unaffected. […]

[1] = Solubility in IV formulations; type: physicochemical; settings: for Solubility in 20/80 DMSO/PBS / Solubility in 15/7/5/73 DMSO/NMP/T20/20% SPE-βCD / Solubility in 15/10/75 DMSO/NMP/20% SPE-βCD: IV formulation; for Solubility in 20/80 DMSO/PBS: 5 mg/mL solution for 100 μL injection; for Solubility in 15/7/5/73 DMSO/NMP/T20/20% SPE-βCD / Solubility in 15/10/75 DMSO/NMP/20% SPE-βCD: 6.6 mg/mL solution for 200 μL injection
U87 cells = assay: Killing kinetics study; type: cell-based, human
Method: FIG. 2A-F. (A) 7 day IC50 values (M) of compound 10 and CPZ in an expanded panel of GBM cell lines. Cell viability was assessed via the Alamar Blue assay, n≥3, error is SEM. (B-E) 7 day dose-response curves of TMZ and CPZ in cell lines with variable MGMT and MMR status. Error is SEM, n≥3. (F) Killing kinetics of CPZ compared to TMZ in the U87 cell line. Cells were treated with compound once and viability was assessed every 24 hours via Alamar Blue assay. Error is SEM, n≥2.
Killing Kinetics Study. U87 cells were seeded in seven 96 well plates starting at 19,200 cells/well (for 24 hour time point) and serially diluted by two-fold for each subsequent 24 hour time point. At each time point, cell viability was assessed via Alamar Blue assay.

in vivo = settings: CD-1 IGS, mouse, brain and serum, iv, 25 mg/kg
Method: Biodistribution and Toxicity Studies. […] Brain tissue and blood were collected from each mouse and immediately acidified to prevent prodrug degradation. The concentration of each compound in the serum (FIG. 4A) and brain (FIG. 4B) were quantified by LC-MS/MS.
CD-1 IGS mice were administered compound in 5% DMSO, 10% Tween-20, and 85% SPE-PCD in sterile water (30% w/v) at 25 mg/kg via lateral tail vein injection. Fifteen minutes post injection, mice were sacrificed and blood was collected by lacerating the right auricle with iris scissors. An 18 gauge angiocatheter was inserted through the left ventricle, and all residual circulatory volume was removed by perfusing 0.9% saline solution via an analog peristaltic pump. Blood samples were immediately centrifuged at 13,000 rcf for five minutes and the supernatant collected and acidified with 8.5% aqueous H3PO4. Brains were harvested from the cranial vault, acidified with 0.3% aqueous H3PO4 and flash frozen. Homogenized brain samples were centrifuged twice at 13,000 rcf for ten minutes and supernatant and tissue debris were separated. The resultant supernatant was analyzed, along with plasma, by LC-MS/MS to determine compound concentrations.

[2] = system: genomic DNA of A172 cells; assay: Quantitation of O6-guanine DNA adducts in cells, A172; type: cell-based; settings: MGMT-negative; LC-MS/MS
Method: Importantly, because CPZ was designed to release a different active species than TMZ, the alkylation pattern in a cellular context is likely different. Therefore, to assess if alkylation still occurs with CPZ, a DNA alkylation assay was performed. GL261 cells were treated with 100, 300, or 500 μM TMZ or CPZ for 8 hours after which the cells were harvested and genomic DNA was extracted and subsequently hydrolyzed to constituent deoxyribonucleosides. LC-MS/MS analysis was employed to quantify the amount of O^6-methyl-2′-deoxyguanosine (O^6-Me-dG) or O^6-propargylated-2′-O^6-deoxyguanosine (O^6-Prop-dG) in each sample.
Quantitation of O^6-guanine DNA Adducts in Cells. GL261, A172, or D54 cells were plated at 1×10^6 c/w in a 6-well plate before they were treated with compound at the indicated concentration (1% final concentration DMSO). After incubation for the indicated time, the cells were harvested and pelleted. Genomic DNA was extracted using the DNeasy Blood & Tissue Kit (Qiagen, ID: 69504). DNA was then precipitated using the following procedure: 1/10 v/v […] sodium acetate (pH 5.2) and 2.5× v/v ethanol was added to each sample which was then kept at −80° C. for 1 h. […] Hydrolyzed samples were then submitted for LC-MS/MS quantitation along with a synthetic standard. Samples were analyzed with a 5500 QTRAP LC/MS/MS system (AB Sciex) with a 1200 series HPLC system (Agilent).

U87 GBM cell line = assay: Cell viability assay (Alamar Blue, 7 days), U87; type: cell-based, human; settings: Homo sapiens, 168 h
Method: (§1) Cell Culture and Reagents. All cell lines were grown in a 37° C., 5% CO2, humidified environment, in media containing 1% penicillin/streptomycin. Stable cell line generation of GL261 MGMT+ was purchased from Creative Biogene. Cell culture conditions are as follows: cell lines U87, T98G, and RKO were grown in EMEM with 10% FBS. D54, GL261, GL261 MGMT+, and U118MG cell lines were grown in DMEM with 10% FBS. HCT116 cells were grown in RMPI with 10% FBS. D341 Med cells were grown in EMEM with 20% FBS. Temozolomide (TMZ) was purchased from AK Scientific. TMZ analogues were synthesized as described below. Compounds were dissolved in DMSO (1% final concentration, Fisher Chemical) for cell culture studies.
(§2) Cell Viability Assays. Cells were harvested, seeded in a 96-well plate and allowed to adhere. After three hours, compound was added to each well in DMSO (1% final concentration). Cells were incubated for seven days (unless otherwise noted) before viability was assessed by the Alamar Blue assay. Raptinal (20 μM) was used as a dead control.
Plated 1500 c/w for GL261; 600 c/w for U87; 600 c/w for U118MG; 1500 c/w for GL261 MGMT+ Incubated ovn and added 1 μL of compound in DMSO the next day. Incubated over 7 days; added Alamar Blue to assess cell viability and used 10 μM Raptinal as dead control. Error is SEM, n=3.

T98G GBM cell line = assay: Cell viability assay (Alamar Blue, 7 days), T98G; type: cell-based, human; settings: Homo sapiens, T98G, 168 h
Method: as §1, §2

[3] = system: D341 Med medulloblastoma cell line; assay: Cell viability assay (Alamar Blue, 7 days), D341 Med; type: cell-based; settings: Homo sapiens, 168 h, MGMT (+)/MMR (−), 7 day
Method: as §1, §2

[4] = MGMT (−) MMR (+), 600 c/w, SEM, n=3, read-out: Activity, U87
[5] = MGMT (+) MMR (+), read-out: Activity, T98G

| SMILES | Potentiation of cell death by O6BG pretreatment (T98G cells) | Solubility in 20/80 DMSO/PBS [1] | Solubility in 15/7/5/73 DMSO/NMP/T20/20% SPE-βCD [1] | Solubility in 15/10/75 DMSO/NMP/20% SPE-βCD [1] | Time to induce cell death in culture (U87 cells; at 100 μM) | Kp at 15 min (in vivo) | O6-dG alkylation adducts, A172 [2] | IC50 (U87 GBM cell line; [4]) | IC50 (U87 GBM cell line; MGMT (−), Alamar Blue, error SEM, n ≥ 3, read-out: Seven-day IC50, U87) | IC50 (T98G GBM cell line; [5]) | IC50 (T98G GBM cell line; MGMT (+), Alamar Blue, error SEM, n ≥ 3, read-out: Seven-day IC50, T98G) | IC50 [3] | Solubility for IV administration [1] | Time to near peak threshold of cell death (U87 cells; treated once, viability every 24 hours) |
| --- | --- | --- | --- | --- | --- | --- | --- | --- | --- | --- | --- | --- | --- | --- |
| Cn1nnc2c(C(N)=O)ncn2c1=O [TMZ, temozolomide, reference compound] | dramatic potentiation of cell death | Soluble* | Soluble | Soluble | 5 to 10 days | 0.08 ± 0.01 | dose-dependent increase in methyl adducts | 51 ± 8 µM | ~50 µM | 570 ± 20 µM | > 550 µM | 460 µM | – | – |
| C#CCn1nnc2c(Cl)ncn2c1=O [CPZ, 8-chloro-3-(prop-2-yn-1-yl)imidazo[5,1-d][1,2,3,5]tetrazin-4(3H)-one] | No such enhancement in activity | Insoluble | Insoluble | Insoluble | – | 1.2 ± 0.2 | did not harbor measurable levels of the propargyl adduct | 16 ± 6 µM | – | 27 ± 6 µM | – | 8 µM | insufficient solubility for IV administration | ≤ 72 h |
